In US20080207745A1, “Orally-absorbed formulation for paromomycin” (priority 2007, published 2008):
Where “and” joins values, the source holds several entries; their conditions need not be identical. Identical values can stand only once. Counter-ions that a name gives are not always drawn. Like-named read-outs stand apart in the source and are kept apart here.

What was measured:
[1] = In vitro PAR transport across harvested intestinal segments, EasyMount Ussing System: colon; type: in vitro ADME; details: rat, 5 mg/ml (~25 mg) paromomycin in mucosal chamber, tissue area 0.5 sq cm
Method: (§1) HEPES buffer was used as the base mucosal and serosal fluid. […] First 5 ml of HEPES buffer was added to each of the two chambers (mucosal and serosal) and allowed to equilibrate for 20 min. […] Aliquots of sample solution were removed from the chamber on other side of the mounted intestinal segment periodically and replaced with an equal volume of fresh warm HEPES buffer.
(§2) These additives, either alone or in combinations, were dissolved in HEPES buffer on percent weight/weight basis of the HEPES medium. Owing to the expected variation in the in-vitro conditions and harvested rat intestinal segments, four replicates were used per experimental condition.
(§3) The apparent permeability coefficients (Papp) were calculated according to:
(§4) Papp=(dQ/dt)/C0×A, where dQ/dt is the linear appearance rate of mass in receiver compartment, C0 is the initial solute concentration in donor compartment, and A is the surface area.
(§5) The drug in post column eluant was derivatized with Dinitrofluorobenzene (DNFB) and monitored at 360 nm. The run time was 30 minutes.

[2] = historically considered (ref. 6); cited from earlier work
[3] = Paromomycin in vivo absorption (pharmacokinetic) studies in rats; parameters: species or system Male rats (Sprague Dawley)
Method: Paromomycin was extracted from plasma samples (100 μl volume) with phenylboronic acid solid phase extraction columns, and the bound drug was eluted from the columns with 1% (v/v) formic acid in water. The acid eluates were evaporated under vacuum, and then the dry residues were reconstituted in 100 μl of 1 mM heptafluorobutyric acid (HFBA) in water.

[4] = In vitro PAR transport across harvested intestinal segments, EasyMount Ussing System: duodenum; type: in vitro ADME; details: rat, 5 mg/ml (~25 mg) paromomycin in mucosal chamber, tissue area 0.5 sq cm
Method: as §1, §2, §3, §4, §5

[5] = In vitro PAR transport across harvested intestinal segments, EasyMount Ussing System: ileum; type: in vitro ADME; details: rat, 5 mg/ml (~25 mg) paromomycin in mucosal chamber, tissue area 0.5 sq cm
Method: as §1, §2, §3, §4, §5

[6] = In vitro PAR transport across harvested intestinal segments, EasyMount Ussing System: jejunum; type: in vitro ADME; details: rat; for Papp at 15 mg/ml: 15 mg/ml PAR
Method: HEPES buffer was used as the base mucosal and serosal fluid. […] First 5 ml of HEPES buffer was added to each of the two chambers (mucosal and serosal) and allowed to equilibrate for 20 min. […] Aliquots of sample solution were removed from the chamber on other side of the mounted intestinal segment periodically and replaced with an equal volume of fresh warm HEPES buffer. […] These additives, either alone or in combinations, were dissolved in HEPES buffer on percent weight/weight basis of the HEPES medium. Owing to the expected variation in the in-vitro conditions and harvested rat intestinal segments, four replicates were used per experimental condition. The apparent permeability coefficients (Papp) were calculated according to: Papp=(dQ/dt)/C0×A, where dQ/dt is the linear appearance rate of mass in receiver compartment, C0 is the initial solute concentration in donor compartment, and A is the surface area. […] The drug in post column eluant was derivatized with Dinitrofluorobenzene (DNFB) and monitored at 360 nm. The run time was 30 minutes.

[7] = male rats, i.v. 100 mg/kg, Group #1, individual rats, 100 mg/kg
[8] = male, Sprague Dawley, rat, plasma, iv, 100 mg/kg, i.v. 100 mg/kg, Group #1, Mean of 3 rats

Structure (SMILES): NC[C@@H]1O[C@H](O[C@H]2[C@@H](O)[C@H](O[C@@H]3[C@@H](O)[C@H](N)C[C@H](N)[C@H]3O[C@H]3O[C@H](CO)[C@@H](O)[C@H](O)[C@H]3N)O[C@@H]2CO)[C@H](N)[C@@H](O)[C@@H]1O [PAR, Paromomycin sulfate]
- Papp at […], 5 mg/ml [1]: 2.07 ×10⁻⁶ cm/s
- oral bioavailability [2]: close to zero
- t1/2 ([3]; male rats, i.v. 100 mg/kg in sterile saline, Group #1, individual rats, 100 mg/kg): 2.70 h and 2.86 h
- V ([3]; male rats, i.v. 100 mg/kg, Group #1, Mean of 3 rats): 5.40 L/kg
- AUC [3, 7]: 55465 ng·h/mL and 85847 ng·h/mL
- Cl [3, 7]: 30 mL/min/kg and 19.3 mL/min/kg
- Cmax [3, 7]: 95.651 µg/mL and 101.318 µg/mL
- V [3, 7]: 4.39 L/kg and 7.01 L/kg and 4.80 L/kg
- half-life ([3]; male, Sprague Dawley, rat, plasma, iv, 100 mg/kg, i.v. 100 mg/kg in sterile saline, Group #1, individual rats): 2.85 h
- clearance [3, 8]: 22.3 mL/min/kg
- half-life [3, 8]: 2.8 h
- AUC ([3]; male, Sprague Dawley, rat, plasma, iv, 100 mg/kg, i.v. 100 mg/kg, Group #1, Mean of 3 rats, read-out: AUC): 78300 ng·h/mL
- Cmax ([3]; male, Sprague Dawley, rat, plasma, iv, 100 mg/kg, i.v. 100 mg/kg, Group #1, Mean of 3 rats, read-out: Cmax): 124 µg/mL
- clearance ([3]; male, Sprague Dawley, rat, plasma, iv, 100 mg/kg, i.v. 100 mg/kg, Group #1, individual rats): 17.8 mL/min/kg
- AUC ([3]; male, Sprague Dawley, rat, plasma, iv, 100 mg/kg, i.v. 100 mg/kg, Group #1, individual rats, read-out: AUC): 93500 ng·h/mL
- Cmax ([3]; male, Sprague Dawley, rat, plasma, iv, 100 mg/kg, i.v. 100 mg/kg, Group #1, individual rats, read-out: Cmax): 174 µg/mL
- Papp at […], 5 mg/ml [4]: 1.94 ×10⁻⁶ cm/s
- Papp at […], 5 mg/ml [5]: 2.22 ×10⁻⁶ cm/s
- Papp at 15 mg/ml ([6]; jejunum M-to-S, Sodium Decanoate in mucosal 0.2 mg/ml (equilibrated 20 min before drug)): 1.48 ×10⁻⁶ cm/s
- Papp at 15 mg/ml ([6]; jejunum M-to-S, Sodium Decanoate in mucosal 0.5 mg/ml (equilibrated)): 2.22 ×10⁻⁶ cm/s
- Papp at 15 mg/ml ([6]; jejunum M-to-S, Sodium Decanoate in mucosal 1 mg/ml (equilibrated)): 4.4 ×10⁻⁶ cm/s
- Papp at 15 mg/ml ([6]; jejunum M-to-S, Sodium Decanoate in mucosal 1 mg/ml (not equilibrated)): 3.83 ×10⁻⁶ cm/s
- Papp at 15 mg/ml ([6]; jejunum M-to-S, Sodium Decanoate in serosal 0.2 mg/ml (not equilibrated)): 3.86 ×10⁻⁶ cm/s
- Papp at 15 mg/ml ([6]; jejunum M-to-S, Sodium Decanoate in serosal 0.5 mg/ml (not equilibrated)): 3.54 ×10⁻⁶ cm/s
- Papp at 15 mg/ml ([6]; jejunum M-to-S, Sodium Decanoate in serosal 1.0 mg/ml (not equilibrated)): 7.2 ×10⁻⁶ cm/s
- Papp at 15 mg/ml ([6]; jejunum M-to-S, no Quinidine, no Sodium Decanoate, tissue area 0.5 sq cm): 2.63 ×10⁻⁶ cm/s
- Papp at 15 mg/ml ([6]; jejunum S-to-M, no Quinidine): 2.75 ×10⁻⁶ cm/s
- Papp at […], 5 mg/ml ([6]; jejunum, 5 mg/ml (~25 mg) paromomycin in mucosal chamber, tissue area 0.5 sq cm): 3.93 ×10⁻⁶ cm/s
- Papp at 15 mg/ml ([6]; with quinidine 0.05 mg/ml in mucosal chamber, jejunum M-to-S, 0.05 mg/ml Quinidine in mucosal): 4.37 ×10⁻⁶ cm/s
- Papp at 15 mg/ml ([6]; with quinidine 0.05 mg/ml in mucosal chamber, jejunum S-to-M, 0.05 mg/ml Quinidine in mucosal): 1.85 ×10⁻⁶ cm/s
